Laboratory results from US20240228647A1, “OFATUMUMAB FOR TREATING MULTIPLE SCLEROSIS IN ASIAN PATIENTS” (Novartis AG, priority 2021, published 2024).
Read-outs that look alike come from different tables or passages of the source. Marks after values point to notes of the source that are not given here.

What was measured:
patients with RMS [1] = assay: Annualized relapse rate (ARR), confirmed relapses, Phase III Studies I and II; assay type: in vivo, human; details: for ARR (number of relapses/patient years) / Adjusted ARR (9559) / Number of relapses (confirmed): FAS; for ARR rate reduction (%): vs teriflunomide
Experimental: (§1) Ofatumumab was investigated in 1882 patients with RMS from two identical Phase III randomized, double-blind, double-dummy, active-comparator controlled, parallel-group, multicenter studies of identical design (Study I and Study II). Patients were randomized to receive either ofatumumab, OMB (20 mg s.c injections every 4 weeks, after an initial loading regimen of 3 injections on Day 1, 7, and 14), or teriflunomide, TER (14 mg p.o. once a day) as active comparator. For brevity, the teriflunomide data are not shown hereinafter.
(§2) The maximum treatment duration for an individual patient was 30 study months (approximately 2.5 years). The two studies included a total of 71 patients of Asian race (36 patients in ofatumumab and 35 patients in teriflunomide treatment groups). This Example also includes the Asian patients data from oncology studies (Study A and Study B), as supportive data, where required.
ARR was the primary efficacy endpoint in the pivotal Phase III studies. Treatment with ofatumumab and teriflunomide were both associated with relatively low ARRs. in the Asian subgroups, with 4 to 5 confirmed relapses in any of the treatment groups (ARRs of 0.08-0.09) (Table 2).

patients with RMS [2] = assay: Time to confirmed disability worsening (3mCDW, 6mCDW), Phase III Studies I and II; assay type: in vivo, human; details: for 3mCDW event rate n/N (%) / 3mCDW events n / 6mCDW event rate n/N (%) / 6mCDW events n: FAS
Experimental: as §1, §2
Time to 3 mCDW and 6 mCDW were key secondary efficacy endpoints in the pivotal Phase III studies.

patients with RMS [3] = assay: Phase II study, Japan and non-Japan subgroups of patients with RMS; assay type: in vivo, human
[4] = tested on: patients with Relapsing Multiple Sclerosis; details: for COVID-19 outcome / COVID-19 symptoms duration: serious case
[5] = human, in vivo
[6] = Pharmacokinetics of ofatumumab in patients (ethnic comparison, half-life); details: 2000 mg intravenous infusion, refractory CLL
[7] = patient 5409018, OMB interrupted
[8] = patient 5608014, OMB interrupted
[9] = patient 5800004, drug withdrawn
[10] = patient 5801015, OMB interrupted

Q: For ofatumumab [OMB], which “ARR (number of relapses/patient years)” value (patients with RMS [1]; Asian (race)) is on record?
A: Its value is “(0.084)”.

Q: And the “Adjusted ARR (9559)” value (patients with RMS [1]; Asian (race))?
A: The value was 0.08 (0.03, 0.24).

Q: What about the “Number of relapses (confirmed)” value (patients with RMS [1]; Asian (race)) of the same substance?
A: The value was 4/47.

Q: And the “ARR (number of relapses/patient years)” value (patients with RMS [1]; Rest of World (race))?
A: Its value is “(0.122)”.

Q: And the “Adjusted ARR (9559)” value (patients with RMS [1]; Rest of World (race))?
A: The value was 0.12 (0.10, 0.14).

Q: And the “Number of relapses (confirmed)” value (patients with RMS [1]; Rest of World (race))?
A: The value was 181/1490.

Q: And the “Reduction of adjusted ARR compared with teriflunomide” value (patients with RMS [1]; overall population)?
A: The value was 52.6%.

Q: And the “ARR rate reduction (%)” value (patients with RMS [1]; Asian (race))?
A: Its value is 11.8/0.862%.

Q: What about the “ARR rate reduction (%)” value (patients with RMS [1]; Rest of World (race)) of the same substance?
A: Its value is 53.3/<0.001* %.

Q: What about the “ARR rate reduction (%)” value (patients with RMS [1]; Rest of World (race), listed as ofatumumab) of the same substance?
A: The value was 53.3%.

Q: And the “3mCDW event rate n/N (%)” value (patients with RMS [2]; Asian (race))?
A: Its value is “(8.3) %”.

Q: And the 3mCDW events n (patients with RMS [2]; Asian (race))?
A: Its 3mCDW events n is 3/36.

Q: And the “6mCDW event rate n/N (%)” value (patients with RMS [2]; Asian (race))?
A: The value was “(8.3) %”.

Q: And the 6mCDW events n (patients with RMS [2]; Asian (race))?
A: The 6mCDW events n was 3/36.

Q: And the “3mCDW event rate n/N (%)” value (patients with RMS [2]; Rest of World (race))?
A: Its value is “(9.3) %”.

Q: What about the 3mCDW events n (patients with RMS [2]; Rest of World (race)) of the same substance?
A: The 3mCDW events n was 85/910.

Q: And the “6mCDW event rate n/N (%)” value (patients with RMS [2]; Rest of World (race))?
A: The value was “(7.5) %”.

Q: And the 6mCDW events n (patients with RMS [2]; Rest of World (race))?
A: Its 6mCDW events n is 68/910.

Q: What about the “3mCDW risk reduction compared with teriflunomide” value (patients with RMS [2]; overall population) of the same substance?
A: Its value is 33.0%.

Q: And the “6mCDW risk reduction compared with teriflunomide” value (patients with RMS [2]; overall population)?
A: Its value is 31.0%.

Q: What about the “Depletion of CD19+ B-cells and CD3+CD20+ T-cells” value (patients with RMS [3]) of the same substance?
A: The value was “rapid and consistent depletion”.

Q: What about the “Efficacy vs. placebo in lesion suppression” value (patients with RMS [3]; Phase II study) of the same substance?
A: Its value is “superior efficacy”.

Q: And the “COVID-19 outcome Ongoing, cases” value ([4]; non-serious cases (n = 29))?
A: The value was 0.

Q: And the “COVID-19 outcome Recovered, cases” value ([4]; non-serious cases (n = 29))?
A: The value was 29.

Q: What about the “COVID-19 outcome Recovering, cases” value ([4]; non-serious cases (n = 29)) of the same substance?
A: The value was 0.

Q: And the “Complete recovery from COVID-19, cases” value ([4]; of 35 confirmed cases)?
A: The value was 34.

Q: And the COVID-19 outcome [4, 7]?
A: Its COVID-19 outcome is “Complete”.

Q: What about the “COVID-19 symptoms duration” value [4, 7] of the same substance?
A: The value was roughly 50 days.

Q: And the COVID-19 outcome [4, 8]?
A: Its COVID-19 outcome is “Complete”.

Q: What about the “COVID-19 symptoms duration” value [4, 8] of the same substance?
A: Its value is 18 days.

Q: What about the COVID-19 outcome [4, 9] of the same substance?
A: The COVID-19 outcome was “Fatal”.

Q: And the “COVID-19 symptoms duration” value [4, 9]?
A: The value was roughly 30 days.

Q: What about the COVID-19 outcome ([4]; patient 5800043, OMB continued) of the same substance?
A: Its COVID-19 outcome is “Complete”.

Q: What about the “COVID-19 symptoms duration” value ([4]; patient 5800043, OMB continued) of the same substance?
A: Its value is 11 days.

Q: What about the COVID-19 outcome [4, 10] of the same substance?
A: The COVID-19 outcome was “Complete”.

Q: And the “COVID-19 symptoms duration” value [4, 10]?
A: Its value is 15 days.

Q: What about the COVID-19 outcome ([4]; patient 5806001, OMB continued) of the same substance?
A: The COVID-19 outcome was “Complete”.

Q: What about the “COVID-19 symptoms duration” value ([4]; patient 5806001, OMB continued) of the same substance?
A: Its value is 10 days.

Q: And the “COVID-19 outcome Fatal, cases” value ([4]; serious cases (n = 6))?
A: Its value is 1.

Q: What about the “COVID-19 outcome Recovered, cases” value ([4]; serious cases (n = 6)) of the same substance?
A: Its value is 5.

Q: And the “Ofatumumab concentrations in Asian subjects and White subjects” value [5]?
A: The value was “Comparable ofatumumab concentrations”.

Q: What about the “Race as a covariate in the population PK analysis” value [5] of the same substance?
A: The value was “not found to be a significant covariate”.

Q: What about the “Half-life at steady state” value ([5]; sc, 20 mg) of the same substance?
A: The value was “approximately 16 days”.

Q: What about the “PK parameters (Cmax, AUC, T1/2) in Asian vs. White patients” value [6] of the same substance?
A: Its value is “Comparable PK parameters”.
